Here are results for 29 molecules from US9828385B2, “Spiro-oxazolones” (Hoffmann-La Roche Inc., priority 2014, dated 2017).

SMILES strings stand for the structures.

The target of this test is T1, human V1a receptor (Homo sapiens, UniProt P37288).
T1 construct: expressed in transfected cells; host or cells: HEK293 cells, transiently transfected; cell membranes
T1 sequence (P37288 whole entry): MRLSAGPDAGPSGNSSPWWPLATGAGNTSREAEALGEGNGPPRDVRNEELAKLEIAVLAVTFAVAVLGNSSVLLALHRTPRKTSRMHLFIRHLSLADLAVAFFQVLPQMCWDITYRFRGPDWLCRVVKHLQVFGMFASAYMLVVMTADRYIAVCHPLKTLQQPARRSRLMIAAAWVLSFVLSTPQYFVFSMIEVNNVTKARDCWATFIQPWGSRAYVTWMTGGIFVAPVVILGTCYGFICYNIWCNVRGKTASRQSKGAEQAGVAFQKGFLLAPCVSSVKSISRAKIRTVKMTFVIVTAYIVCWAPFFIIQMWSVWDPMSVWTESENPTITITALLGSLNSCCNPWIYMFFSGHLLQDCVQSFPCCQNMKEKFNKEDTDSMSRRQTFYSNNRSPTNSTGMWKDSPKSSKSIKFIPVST
The test can be described thus: human V1a receptor binding studies (3H-Vasopressin, SPA beads). As to conditions: membranes of HEK293 cells transiently transfected with human V1a receptor, Ki by Cheng-Prussoff from IC50, read-out: pKi hV1a (converted). In short, it runs like this: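 Membranes from transiently transfected HEK293 cells expressing cloned human V1a receptor, on yttrium silicate SPA beads, competed against 4 nM 3H-vasopressin (added stock concentration) in Tris buffer with NaCl, KCl, CaCl2, MgCl2 for 1 h at room temperature. Nonspecific binding with cold vasopressin; IC50 by nonlinear fit, Ki via Cheng-Prusoff.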
As for `O=C1N=C(N2CCC3(CC2)OCc2ccccc23)O[C@]12C[C@H]1CC(F)(F)C[C@H]1C2` [Example 146, 5′,5′-Difluoro-2-(1′H,3H-spiro[2-benzofuran-1,4′-piperidin]-1′-yl)-3′,3a′,4′,5′,6′,6a′-hexahydro-1′H,4H-spiro[1,3-oxazole-5,2′-pentalen]-4-one], the Ki was 0.00398 µM. The same measure for `O=C1N=C(N2CCC3(CC2)OCc2cccc(F)c23)OC1Cc1ccccc1` (centres unmarked) [Example 23, 5-Benzyl-2-(7-fluoro-1′H,3H-spiro[2-benzofuran-1,4′-piperidin]-1′-yl)-1,3-oxazol-4(5H)-one]: 0.00251 µM; for `O=C1C=C2CC3(CC2C1)OC(N1CCC2(CC1)OCc1ccccc12)=NC3=O` (centres unmarked) [Example 142, 2-(1′H,3H-Spiro[2-benzofuran-1,4′-piperidin]-1′-yl)-3a′,4′-dihydro-1′H,4H-spiro[1,3-oxazole-5,2′-pentalene]-4,5′(3′H)-dione]: 0.158 µM. The same measure for `CC1(CC2CCCOC2)OC(N2CCC3(CC2)OCc2ccccc23)=NC1=O` (single isomer, unassigned; diastereomer a) [Example 102, (+)-5-Methyl-2-(1′H,3H-spiro[2-benzofuran-1,4′-piperidin]-1′-yl)-5-(tetrahydro-2H-pyran-3-ylmethyl)-1,3-oxazol-4(5H)-one diastereomer a]: 0.02 µM.

On to `CC1(CC2CCCC2)OC(N2CCC3(CC2)OCc2ccccc23)=NC1=O` (centres unmarked) [Example 76, 5-(Cyclopentylmethyl)-5-methyl-2-(1′H,3H-spiro[2-benzofuran-1,4′-piperidin]-1′-yl)-1,3-oxazol-4(5H)-one], for which the Ki is 0.00501 µM. The same measure for `CC(c1ccccc1)C1(C)OC(N2CCC3(CC2)OCc2ccccc23)=NC1=O` (single isomer, unassigned; diastereomer b) [Example 110, (−)-5-Methyl-5-(1-phenylethyl)-2-(1′H,3H-spiro[2-benzofuran-1,4′-piperidin]-1′-yl)-1,3-oxazol-4(5H)-one diastereomer b]: 0.00631 µM.

As for `CCCCC1(C)OC(N2CCC3(CC2)OCc2ccccc23)=NC1=O` (single isomer, unassigned; (-)) [Example 68, (−)-5-Butyl-5-methyl-2-(1′H,3H-spiro[2-benzofuran-1,4′-piperidin]-1′-yl)-1,3-oxazol-4(5H)-one], the Ki is 0.2 µM. On to `O=C1N=C(N2CCC3(CC2)OCc2ccccc23)OC12CC=C(CO)C2` (centres unmarked) [Example 119, 7-(Hydroxymethyl)-2-(3H-spiro[isobenzofuran-1,4′-piperidine]-1′-yl)-1-oxa-3-azaspiro[4.4]nona-2,7-dien-4-one], for which the Ki was 1 µM. The same measure for `CC1OC2(CCN(C3=NC(=O)C(Cc4ccccc4)O3)CC2)c2ccccc21` (centres unmarked) [Example 22, 5-Benzyl-2-(3-methyl-1′H,3H-spiro[2-benzofuran-1,4′-piperidin]-1′-yl)-1,3-oxazol-4(5H)-one]: 0.00126 µM; for `O=C1N=C(N2CCC3(CC2)OCc2ccccc23)OC1C(O)c1ccccc1` (single isomer, unassigned) [Example 37, 5-(Hydroxy(phenyl)methyl)-2-(1′H,3H-spiro[2-benzofuran-1,4′-piperidin]-1′-yl)-1,3-oxazol-4(5H)-one diastereomer a, enantiomer B]: 0.126 µM. The same measure for `CCOC(=O)C1[C@H]2CC3(C[C@@H]12)OC(N1CCC2(CC1)OCc1ccccc12)=NC3=O` (single isomer, unassigned; diastereomer a) [Example 148, Ethyl 4′-oxo-2′-(1′H,3H-spiro[2-benzofuran-1,4′-piperidin]-1′-yl)-4′H-spiro[bicyclo[3.1.0]hexane-3,5′-[1,3]oxazole]-6-carboxylate diastereomer a]: 1 µM; for `CC(=O)O[C@H]1CC2(C[C@H]1OC(C)=O)OC(N1CCC3(CC1)OCc1ccccc13)=NC2=O` (single isomer, unassigned; diastereomer a) [Example 120, 4-Oxo-2-(1′H,3H-spiro[2-benzofuran-1,4′-piperidin]-1′-yl)-1-oxa-3-azaspiro[4.4]non-2-ene-7,8-diyl diacetate diastereomer a]: 0.2 µM; for `CC1(Cc2ccc(Cl)s2)OC(N2CCC3(CC2)OCc2ccccc23)=NC1=O` (centres unmarked) [Example 85, 5-[(5-Chlorothiophen-2-yl)methyl]-5-methyl-2-(1′H,3H-spiro[2-benzofuran-1,4′-piperidin]-1′-yl)-1,3-oxazol-4(5H)-one]: 0.00501 µM. In the case of `CCCCCC1CCC2(CC1)OC(N1CCC3(CC1)OC(=O)c1ccccc13)=NC2=O` (single isomer, unassigned; diastereomer b) [Example 127, 1′-[4-Oxo-8-pentyl-1-oxa-3-azaspiro[4.5]dec-2-en-2-yl]-3H-spiro[2-benzofuran-1,4′-piperidin]-3-one diastereomer b], the Ki was 0.251 µM. The same measure for `O=C1N=C(N2CCC3(CC2)OCc2ccccc23)OC1C(O)c1ccccc1` (single isomer, unassigned) [Example 38, 5-(Hydroxy(phenyl)methyl)-2-(1′H,3H-spiro[2-benzofuran-1,4′-piperidin]-1′-yl)-1,3-oxazol-4(5H)-one diastereomer b, enantiomer A]: 0.794 µM. Consider `CC1(C(O)c2ccc(Cl)cc2)OC(N2CCC3(CC2)OCc2ccccc23)=NC1=O` (centres unmarked) [Example 91, 5-[(4-Chlorophenyl)(hydroxy)methyl]-5-methyl-2-(1′H,3H-spiro[2-benzofuran-1,4′-piperidin]-1′-yl)-1,3-oxazol-4(5H)-one], for which the Ki is 0.0251 µM. Regarding `O=C1N=C(N2CCC3(CC2)OCc2ccccc23)OC1C(F)c1ccc(Cl)cc1` (single isomer, unassigned) [Example 48, 5-((4-Chlorophenyl)fluoromethyl)-2-(1′H,3H-spiro[2-benzofuran-1,4′-piperidin]-1′-yl)-1,3-oxazol-4(5H)-one diastereomer b, enantiomer A], the Ki was 0.0398 µM. The same measure for `CC1(CC2CCCO2)OC(N2CCC3(CC2)OCc2ccccc23)=NC1=O` (centres unmarked) [Example 101, 5-Methyl-2-(1′H,3H-spiro[2-benzofuran-1,4′-piperidin]-1′-yl)-5-(tetrahydrofuran-2-ylmethyl)-1,3-oxazol-4(5H)-one]: 0.2 µM. The same measure for `O=C1OC2(CCN(C3=NC(=O)C(Cc4ccccc4)O3)CC2)c2ccc(Br)cc21` (centres unmarked) [Example 32, 1′-(5-Benzyl-4-oxo-4,5-dihydro-1,3-oxazol-2-yl)-5-bromo-3H-spiro[2-benzofuran-1,4′-piperidin]-3-one]: 0.0631 µM; for `CC1(Cc2ccc(Cl)s2)OC(N2CCC3(CC2)OCc2ccccc23)=NC1=O` (single isomer, unassigned; (-)) [Example 87, (−)-5-[(5-Chlorothiophen-2-yl)methyl]-5-methyl-2-(1′H,3H-spiro[2-benzofuran-1,4′-piperidin]-1′-yl)-1,3-oxazol-4(5H)-one]: 0.2 µM; for `O=C1OC2(CCN(C3=NC(=O)C(Cc4ccccc4)O3)CC2)c2ccccc21` (single isomer, unassigned; enantiomer a) [Example 20, 1′-[5-Benzyl-4-oxo-4,5-dihydro-1,3-oxazol-2-yl]-3H-spiro[2-benzofuran-1,4′-piperidin]-3-one enantiomer A]: 0.251 µM. Regarding `O=C1OC2(CCN(C3=NC(=O)C(Cc4ccc(Cl)cc4)(Cc4ccc(Cl)cc4)O3)CC2)c2ccccc21` [Example 95, 1′-[5,5-Bis(4-chlorobenzyl)-4-oxo-4,5-dihydro-1,3-oxazol-2-yl]-3H-spiro[2-benzofuran-1,4′-piperidin]-3-one], the Ki is 0.00501 µM. The same measure for `COc1ccc2c(c1)C(=O)OC21CCN(C2=NC(=O)C(Cc3ccccc3)O2)CC1` (centres unmarked) [Example 31, 1′-(5-Benzyl-4-oxo-4,5-dihydro-1,3-oxazol-2-yl)-5-methoxy-3H-spiro[2-benzofuran-1,4′-piperidin]-3-one]: 0.1 µM; for `O=C1N=C(N2CCC3(CC2)OCc2ccccc23)OC1C(O)c1ccc(Cl)cc1` (centres unmarked) [Example 40, 5-[(4-Chlorophenyl)(hydroxy)methyl]-2-(1′H,3H-spiro[2-benzofuran-1,4′-piperidin]-1′-yl)-1,3-oxazol-4(5H)-one]: 0.00398 µM. The same measure for `O=C1N=C(N2CCC3(CC2)OCc2ccccc23)O[C@]12C[C@H]1CCCC[C@H]1C2` [Example 141, 2′-(1′H,3H-Spiro[2-benzofuran-1,4′-piperidin]-1′-yl)-1,3,3a,4,5,6,7,7a-octahydro-4′H-spiro[indene-2,5′-[1,3]oxazol]-4′-one]: 0.000501 µM; for `CC1(Cc2ccc(Cl)cc2)OC(N2CCC3(CC2)OCc2ccccc23)=NC1=O` (centres unmarked) [Example 75, 5-(4-Chlorobenzyl)-5-methyl-2-(1′H,3H-spiro[2-benzofuran-1,4′-piperidin]-1′-yl)-1,3-oxazol-4(5H)-one]: 0.00398 µM; for `O=C1N=C(N2CCC3(CC2)OCc2ccccc23)OC1C(F)c1ccc(Cl)cc1` (single isomer, unassigned) [Example 46, 5-((4-Chlorophenyl)fluoromethyl)-2-(1′H,3H-spiro[2-benzofuran-1,4′-piperidin]-1′-yl)-1,3-oxazol-4(5H)-one diastereomer a, enantiomer A]: 0.0316 µM.

On to `CC(c1ccccc1)C1(C)OC(N2CCC3(CC2)OCc2ccccc23)=NC1=O` (single isomer, unassigned; diastereomer a) [Example 108, (+)-5-Methyl-5-(1-phenylethyl)-2-(1′H,3H-spiro[2-benzofuran-1,4′-piperidin]-1′-yl)-1,3-oxazol-4(5H)-one diastereomer a], for which the Ki is 0.0126 µM.

Consider `CCCCCC1CCC2(CC1)OC(N1CCC3(CC1)OCc1ccccc13)=NC2=O` (single isomer, unassigned; diastereomer a) [Example 128, 8-Pentyl-2-(1′H,3H-spiro[2-benzofuran-1,4′-piperidin]-1′-yl)-1-oxa-3-azaspiro[4.5]dec-2-en-4-one diastereomer a], for which the Ki was 0.02 µM.
